Laboratory results reported in article PMC6751662, “Pharmacological and functional similarities of the human neuropeptide Y system in C. elegans challenges phylogenetic views on the FLP/NPR system” (Cell Communication and Signaling : CCS, 2019).
Values belong to the substance of their own block, whether it stands above or below them.

How the values were obtained:
NPR-6 = experiment: IP accumulation assay, chimeric GαΔ6qi4myr, NPR-6; format: cell-based, C. elegans; conditions: 1 h, HBSS + 20 mM LiCl, HEK293 receptor + GαΔ6qi4myr, HTRF IP-One
Description: (§1) For measuring IP accumulation, HEK293 cells grown to 70–80% confluency in 6-well plates were transiently co-transfected using Metafectene Pro (2.5 μl/μg DNA; Biontex) with plasmids containing receptor and/or mock (empty pcDNA3.1) (for endogenous Gq-coupling) using 4 μg total DNA in a ratio of 3:1 following the manufacturer’s instructions. For testing Gα16- and GαΔ6qi4myr-coupling, plasmids encoding the corresponding Gα protein were co-transfected instead of mock. Gα16 is naturally promiscuous and stimulates the phospholipase C (PLC) pathway leading to IP production, while the exchange of the C-terminal four amino acids of Gαq for the corresponding residues of Gαi1 in the chimeric GαΔ6qi4myr confers the ability to couple to Gi/o protein-preferring receptors but still stimulate PLC, thus specifically redirecting downstream cellular signaling. 16 h post transfection, the cells were seeded into white 384-well plates at a density of 20,000 cells/well. Media was removed 24 h later and the cells were incubated with the indicated concentration of peptides for 1 h in HBSS + 20 mM LiCl. IP accumulation was measured with the HTRF-based IP-One Gq kit (Cisbio) on a microplate reader (Tecan Spark).
(§2) For in vitro activation, data is presented as mean ± SEM of at least three independent experiments conducted in technical triplicate. […] For the C. elegans NPRs, we considered the strongest response elicited by any of the peptides downstream of a particular receptor as the receptor’s maximal signal. This may or may not be the biological maximum that can be reached by the ‘true’ endogenous agonist. For the human receptors, the response to the established endogenous agonist reflected the maximal signal.

[1] = test system: mock (empty vector) transfected HEK293 cells; experiment: IP accumulation assay, negative control: empty vector (mock) instead of the receptor; format: cell-based, Homo sapiens; conditions: 1 h, HBSS + 20 mM LiCl, HEK293 with empty vector instead of receptor (negative control), HTRF IP-One, mean of >=3 independent experiments
Description: as §1, §2

Y1R = target: T1, Y1R (Homo sapiens, UniProt P25929); experiment: cAMP reporter gene assay, Gi/o, Y1R; format: cell-based; conditions: for cAMP assay (Gi/o), Y1R: 4 h, lower = higher Gi/o activity, transfected HEK293, CRE-luciferase, mean of >=3 independent experiments; for Gi (Gs) [x-fold of forskolin], Y1R, mean: inhibition of cAMP production induced by 1 µM forskolin (set to 1.00), transiently transfected HEK293 cells, mean of at least three independent experiments
T1 construct: expressed in transfected cells; host or cells: HEK293, transient
T1 sequence (P25929 1-384): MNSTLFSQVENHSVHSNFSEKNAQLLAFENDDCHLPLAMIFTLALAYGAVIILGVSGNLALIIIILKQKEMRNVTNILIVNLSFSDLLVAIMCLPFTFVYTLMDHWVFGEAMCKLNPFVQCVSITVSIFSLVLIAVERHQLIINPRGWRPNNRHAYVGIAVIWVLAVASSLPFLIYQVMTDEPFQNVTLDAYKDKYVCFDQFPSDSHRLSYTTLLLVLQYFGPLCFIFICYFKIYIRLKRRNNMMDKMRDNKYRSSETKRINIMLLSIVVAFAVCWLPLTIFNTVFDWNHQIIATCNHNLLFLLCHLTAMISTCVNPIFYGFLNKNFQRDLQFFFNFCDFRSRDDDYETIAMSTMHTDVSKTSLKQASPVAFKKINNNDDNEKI
Description: (§3) Activation of Gs and Gi/o was assessed with a cAMP reporter gene assay. HEK293 cells grown to 70–80% confluency in 6-well plates were transiently co-transfected with vectors encoding the receptor and the cAMP reporter gene plasmid pGL4.29 [luc2P/CRE/Hygro] (Promega; 4 μg total, 1:1 ratio) using Metafectene Pro (3 μl/μg DNA; Biontex) following the manufacturer’s instructions. 16 h post transfection, the cells were seeded into white 384-well plates at a density of 20,000 cells/well. On the next day, the medium was removed and the cells were stimulated with 20 μl of peptide solution (or forskolin as positive control) in serum-free DMEM for 4 h. For measuring Gi/o activity, the peptide solutions additionally contained 1 μM forskolin to elevate cellular cAMP levels. After incubation, the luciferase substrate OneGlo in lysis buffer (Promega) was added and the luminescence was measured in a microplate reader Tecan Spark (Tecan). Data were analyzed with GraphPad Prism 5.03 and are shown as fold of basal or fold of forskolin in case of Gαi/o activity.
as §2

Y4R = target: T2, Y4R (Homo sapiens, UniProt P50391); experiment: cAMP reporter gene assay, Gi/o, Y4R; format: cell-based; conditions: for cAMP assay (Gi/o), Y4R: 4 h, lower = higher Gi/o activity, transfected HEK293, CRE-luciferase, mean of >=3 independent experiments; for Gi (Gs) [x-fold of forskolin], Y4R, mean: inhibition of cAMP production induced by 1 µM forskolin (set to 1.00), transiently transfected HEK293 cells, mean of at least three independent experiments
T2 construct: expressed in transfected cells; host or cells: HEK293, transient
T2 sequence (P50391 whole entry): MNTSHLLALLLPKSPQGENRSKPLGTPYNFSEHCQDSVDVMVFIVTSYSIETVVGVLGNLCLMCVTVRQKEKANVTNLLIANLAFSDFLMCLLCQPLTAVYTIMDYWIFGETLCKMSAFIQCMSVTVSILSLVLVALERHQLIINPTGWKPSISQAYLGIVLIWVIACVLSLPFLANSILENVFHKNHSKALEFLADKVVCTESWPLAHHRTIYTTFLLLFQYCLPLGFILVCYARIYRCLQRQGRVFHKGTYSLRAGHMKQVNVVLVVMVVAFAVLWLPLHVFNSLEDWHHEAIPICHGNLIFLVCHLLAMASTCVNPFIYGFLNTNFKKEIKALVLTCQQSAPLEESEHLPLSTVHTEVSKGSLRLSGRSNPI
Description: as §3, §2

Y5R = target: T3, Y5R (Homo sapiens, UniProt Q15761); experiment: cAMP reporter gene assay, Gi/o, Y5R; format: cell-based; conditions: for cAMP assay (Gi/o), Y5R: 4 h, lower = higher Gi/o activity, transfected HEK293, CRE-luciferase, mean of >=3 independent experiments; for Gi (Gs) [x-fold of forskolin], Y5R, mean: inhibition of cAMP production induced by 1 µM forskolin (set to 1.00), transiently transfected HEK293 cells, mean of at least three independent experiments
T3 construct: expressed in transfected cells; host or cells: HEK293, transient
T3 sequence (Q15761 1-445): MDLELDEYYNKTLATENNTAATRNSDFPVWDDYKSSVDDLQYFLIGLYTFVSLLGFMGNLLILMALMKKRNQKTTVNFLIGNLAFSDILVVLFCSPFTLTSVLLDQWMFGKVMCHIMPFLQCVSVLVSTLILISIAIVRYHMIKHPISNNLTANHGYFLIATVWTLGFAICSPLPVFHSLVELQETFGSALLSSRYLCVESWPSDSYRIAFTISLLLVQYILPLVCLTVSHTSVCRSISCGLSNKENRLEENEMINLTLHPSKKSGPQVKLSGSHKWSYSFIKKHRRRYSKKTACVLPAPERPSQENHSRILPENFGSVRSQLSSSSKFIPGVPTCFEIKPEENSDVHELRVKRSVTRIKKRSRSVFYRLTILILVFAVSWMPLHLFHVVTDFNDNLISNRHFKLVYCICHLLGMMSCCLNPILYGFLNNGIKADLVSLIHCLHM
Description: as §3, §2

NPFF1R = target: T4, NPFF1R (Homo sapiens, UniProt Q9GZQ6); experiment: cAMP reporter gene assay, Gi/o, NPFF1R; format: cell-based; conditions: for cAMP assay (Gi/o), NPFF1R: 4 h, lower = higher Gi/o activity, transfected HEK293, CRE-luciferase, mean of >=3 independent experiments; for Gi (Gs) [x-fold of forskolin], NPFF1R, mean: inhibition of cAMP production induced by 1 µM forskolin (set to 1.00), transiently transfected HEK293 cells, mean of at least three independent experiments
T4 construct: expressed in transfected cells; host or cells: HEK293, transient
T4 sequence (Q9GZQ6 whole entry): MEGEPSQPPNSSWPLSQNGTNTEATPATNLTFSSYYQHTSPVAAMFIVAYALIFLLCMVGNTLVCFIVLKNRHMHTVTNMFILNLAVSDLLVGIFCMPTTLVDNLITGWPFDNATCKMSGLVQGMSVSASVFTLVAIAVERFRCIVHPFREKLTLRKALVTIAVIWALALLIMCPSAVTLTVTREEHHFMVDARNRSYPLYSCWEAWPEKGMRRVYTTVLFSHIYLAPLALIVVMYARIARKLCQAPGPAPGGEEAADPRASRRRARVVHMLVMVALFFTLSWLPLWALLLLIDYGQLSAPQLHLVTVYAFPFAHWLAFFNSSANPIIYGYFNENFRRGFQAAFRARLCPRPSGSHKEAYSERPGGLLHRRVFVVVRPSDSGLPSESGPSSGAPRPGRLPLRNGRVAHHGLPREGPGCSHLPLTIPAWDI
Description: as §3, §2

[2] = 0.1 µM peptide (Table S8), mean of >=3 independent experiments
[3] = 10 µM peptide, mean of >=3 independent experiments (Tables S5 and S8)
[4] = 0.1 µM peptide + 1 µM forskolin (set to 1.00)
[5] = 10 µM peptide + 1 µM forskolin (set to 1.00)

cAMP assay (Gi/o), Y1R (Y1R; [4]): 0.94 x-fold of forskolin
cAMP assay (Gi/o), Y1R (Y1R; [5]): 0.73 x-fold of forskolin
cAMP assay (Gi/o), Y4R (Y4R; [4]): 0.95 x-fold of forskolin
cAMP assay (Gi/o), Y4R (Y4R; [5]): 0.90 x-fold of forskolin
cAMP assay (Gi/o), Y5R (Y5R; [4]): 0.94 x-fold of forskolin
cAMP assay (Gi/o), Y5R (Y5R; [5]): 0.99 x-fold of forskolin
cAMP assay (Gi/o), NPFF1R (NPFF1R; [4]): 0.81 x-fold of forskolin
cAMP assay (Gi/o), NPFF1R (NPFF1R; [5]): 0.47 x-fold of forskolin
Substance: APLEGFEDMSGFLRTIDGIQKPRF-NH2 [FLP-33, NPY-like C. elegans FLP with C-terminal RxRF/Ya signature]

cAMP assay (Gi/o), Y1R (Y1R; [4]): 0.88 x-fold of forskolin
cAMP assay (Gi/o), Y1R (Y1R; [5]): 0.23 x-fold of forskolin
cAMP assay (Gi/o), Y4R (Y4R; [4]): 1.01 x-fold of forskolin
cAMP assay (Gi/o), Y4R (Y4R; [5]): 0.75 x-fold of forskolin
cAMP assay (Gi/o), Y5R (Y5R; [4]): 1.07 x-fold of forskolin
cAMP assay (Gi/o), Y5R (Y5R; [5]): 0.96 x-fold of forskolin
cAMP assay (Gi/o), NPFF1R (NPFF1R; [4]): 0.76 x-fold of forskolin
cAMP assay (Gi/o), NPFF1R (NPFF1R; [5]): 0.26 x-fold of forskolin
Substance: EASAFGDIIGELKGKGLGGRMRF-NH2 [FLP-27, NPY-like C. elegans FLP with C-terminal RxRF/Ya signature]

Gi (Gs) [x-fold of forskolin], Y1R, mean (Y1R; 0.1 µM peptide): 0.85 x-fold of forskolin
Gi (Gs) [x-fold of forskolin], Y1R, mean (Y1R; 10 µM peptide): 0.76 x-fold of forskolin
Gi (Gs) [x-fold of forskolin], Y4R, mean (Y4R; 0.1 µM peptide): 0.81 x-fold of forskolin
Gi (Gs) [x-fold of forskolin], Y4R, mean (Y4R; 10 µM peptide): 0.85 x-fold of forskolin
Gi (Gs) [x-fold of forskolin], Y5R, mean (Y5R; 0.1 µM peptide): 0.84 x-fold of forskolin
Gi (Gs) [x-fold of forskolin], Y5R, mean (Y5R; 10 µM peptide): 0.87 x-fold of forskolin
Gi (Gs) [x-fold of forskolin], NPFF1R, mean (NPFF1R; 0.1 µM peptide): 1.03 x-fold of forskolin
Gi (Gs) [x-fold of forskolin], NPFF1R, mean (NPFF1R; 10 µM peptide): 0.66 x-fold of forskolin
Substance: GLGPRPLAF-NH2 [[R8A]FLP-21, R8A control peptide of FLP-21, penultimate arginine exchanged for an alanine]

Gi (Gs) [x-fold of forskolin], Y1R, mean (Y1R; 0.1 µM peptide): 0.72 x-fold of forskolin
Gi (Gs) [x-fold of forskolin], Y1R, mean (Y1R; 10 µM peptide): 0.71 x-fold of forskolin
Gi (Gs) [x-fold of forskolin], Y4R, mean (Y4R; 0.1 µM peptide): 0.79 x-fold of forskolin
Gi (Gs) [x-fold of forskolin], Y4R, mean (Y4R; 10 µM peptide): 0.94 x-fold of forskolin
Gi (Gs) [x-fold of forskolin], Y5R, mean (Y5R; 0.1 µM peptide): 0.89 x-fold of forskolin
Gi (Gs) [x-fold of forskolin], Y5R, mean (Y5R; 10 µM peptide): 0.91 x-fold of forskolin
Gi (Gs) [x-fold of forskolin], NPFF1R, mean (NPFF1R; 0.1 µM peptide): 0.91 x-fold of forskolin
Gi (Gs) [x-fold of forskolin], NPFF1R, mean (NPFF1R; 10 µM peptide): 0.71 x-fold of forskolin
Substance: RGPSGPLAF-NH2 [[R8A]FLP-15-2]

More lines, now with the values behind:

Substance: AGSDPNFLRF-NH2 [FLP-1-2, C. elegans FMRFamide-like peptide, C-terminally amidated, synthesized by SPPS]
IP accumulation with GαΔ6qi4myr, NPR-6 (NPR-6; [2]): 1.14 x-fold of basal
IP accumulation with GαΔ6qi4myr, NPR-6 (NPR-6; [3]): 5.19 x-fold of basal
IP accumulation, mock ([1]; 0.1 µM peptide): 4.14 x-fold of basal
IP accumulation, mock ([1]; 10 µM peptide): 1.78 x-fold of basal

Substance: APKPKFIRF-NH2 [FLP-5-1, C. elegans FMRFamide-like peptide, C-terminally amidated, synthesized by SPPS]
IP assay endog. Gαq + GαΔ6qi4myr, NPR-6 (NPR-6; 0.1 nM peptide (Table S5), mean of >=3 independent experiments): 0.96 x-fold of basal
IP accumulation with GαΔ6qi4myr, NPR-6 (NPR-6; [2]): 0.96 x-fold of basal
IP accumulation with GαΔ6qi4myr, NPR-6 (NPR-6; [3]): 0.98 x-fold of basal
IP accumulation, mock ([1]; 0.1 µM peptide): 1.08 x-fold of basal
IP accumulation, mock ([1]; 10 µM peptide): 1.01 x-fold of basal

Substance: ASPSFIRF-NH2 [FLP-4-2, C. elegans FMRFamide-like peptide, C-terminally amidated, synthesized by SPPS]
IP accumulation with GαΔ6qi4myr, NPR-6 (NPR-6; [2]): 0.96 x-fold of basal
IP accumulation with GαΔ6qi4myr, NPR-6 (NPR-6; [3]): 1.19 x-fold of basal
IP accumulation, mock ([1]; 0.1 µM peptide): 0.75 x-fold of basal
IP accumulation, mock ([1]; 10 µM peptide): 0.75 x-fold of basal

Substance: NPENDTPFGTMRF-NH2 [FLP-3-4, C. elegans FMRFamide-like peptide, C-terminally amidated, synthesized by SPPS]
IP accumulation with GαΔ6qi4myr, NPR-6 (NPR-6; [2]): 1.04 x-fold of basal
IP accumulation with GαΔ6qi4myr, NPR-6 (NPR-6; [3]): 5.43 x-fold of basal
IP accumulation, mock ([1]; 0.1 µM peptide): 1.08 x-fold of basal
IP accumulation, mock ([1]; 10 µM peptide): 1.16 x-fold of basal
